Data from PMC11005379, “Control of three-carbon amino acid homeostasis by promiscuous importers and exporters in Bacillus subtilis: role of the “sleeping beauty” amino acid exporters” (mBio, 2024).

Tests used:
Assay type in all cases: cell-based
AimA = target: T1, AimA (Bacillus subtilis, UniProt Q45577); assay: radiolabelled substrate uptake, wild type against deletion strain; settings: labelled compound, 30 mM beta-alanine, C-Glc minimal medium, intact cells
T1 construct: native full-length APC superfamily permease in intact B. subtilis cells; wild type 168 against deltaaimA (GP3590)
T1 sequence (Q45577 1-539): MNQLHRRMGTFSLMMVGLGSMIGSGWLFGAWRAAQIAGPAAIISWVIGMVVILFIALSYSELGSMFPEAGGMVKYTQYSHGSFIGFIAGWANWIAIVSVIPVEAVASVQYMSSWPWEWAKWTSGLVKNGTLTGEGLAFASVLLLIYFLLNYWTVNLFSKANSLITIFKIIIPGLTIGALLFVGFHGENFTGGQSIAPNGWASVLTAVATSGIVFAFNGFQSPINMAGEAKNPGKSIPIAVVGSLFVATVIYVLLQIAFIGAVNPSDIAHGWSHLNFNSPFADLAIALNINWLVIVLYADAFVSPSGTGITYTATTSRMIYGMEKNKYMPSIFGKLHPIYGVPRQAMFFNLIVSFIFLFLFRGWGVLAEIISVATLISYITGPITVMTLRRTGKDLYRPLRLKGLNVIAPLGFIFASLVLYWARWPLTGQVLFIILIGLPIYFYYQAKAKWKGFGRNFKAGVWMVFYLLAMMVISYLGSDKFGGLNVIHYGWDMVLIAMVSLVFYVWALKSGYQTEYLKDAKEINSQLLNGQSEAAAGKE

AexA (YdeD) = target: T2, AexA (YdeD) (Bacillus subtilis, UniProt P96661); assay: intracellular accumulation of radiolabelled substrate, overexpressing against deletion strain; settings: labelled compound; 30 mM beta-alanine; C-Glc minimal medium; export; intact cells
T2 construct: native full-length EamA family exporter in intact B. subtilis cells; chromosomal gene overexpressed by aerA Y179D (GP4117) against aerA Y179D deltaaexA (GP3958)
T2 sequence (P96661 1-319): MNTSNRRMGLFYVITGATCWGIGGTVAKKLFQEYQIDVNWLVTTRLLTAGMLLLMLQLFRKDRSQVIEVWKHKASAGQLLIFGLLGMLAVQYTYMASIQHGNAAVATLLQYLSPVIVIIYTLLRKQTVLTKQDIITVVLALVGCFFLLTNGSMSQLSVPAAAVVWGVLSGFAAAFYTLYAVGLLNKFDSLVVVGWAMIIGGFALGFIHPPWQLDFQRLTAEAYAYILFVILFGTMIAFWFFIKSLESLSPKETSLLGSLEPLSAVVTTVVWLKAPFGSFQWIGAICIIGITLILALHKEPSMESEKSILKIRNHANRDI

AlaP = target: T3, AlaP (Bacillus subtilis, UniProt O34618); assay: radiolabelled substrate uptake, wild type against deletion strain; settings: labelled compound, 30 mM beta-alanine, C-Glc minimal medium, intact cells
T3 construct: gene ytnA; native full-length APC superfamily permease in intact B. subtilis cells
T3 sequence (O34618 1-463): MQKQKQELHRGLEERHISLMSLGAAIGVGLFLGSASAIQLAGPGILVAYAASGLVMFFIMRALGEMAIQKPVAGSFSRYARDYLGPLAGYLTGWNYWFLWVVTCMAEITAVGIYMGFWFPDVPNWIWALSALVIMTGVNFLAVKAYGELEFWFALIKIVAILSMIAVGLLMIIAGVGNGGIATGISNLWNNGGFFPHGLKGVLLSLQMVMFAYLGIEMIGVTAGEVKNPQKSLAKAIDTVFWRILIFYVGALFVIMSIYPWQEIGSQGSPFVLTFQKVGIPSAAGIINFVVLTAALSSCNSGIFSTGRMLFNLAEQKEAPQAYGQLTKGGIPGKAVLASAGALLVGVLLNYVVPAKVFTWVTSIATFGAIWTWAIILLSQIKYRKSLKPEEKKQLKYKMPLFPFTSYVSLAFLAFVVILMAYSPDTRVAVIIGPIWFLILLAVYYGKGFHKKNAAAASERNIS

NCCC(=O)O [β-alanine]
radiolabelled substrate uptake, wild type against deletion strain (AimA): a severe reduction was observed in the alaP and aimA mutants | intracellular accumulation of radiolabelled substrate, overexpressing against de (AexA (YdeD)): clearly demonstrates that AexA indeed acts as an exporter for β-alanine | radiolabelled substrate uptake, wild type against deletion strain (AlaP): a severe reduction was observed in the alaP and aimA mutants
